6 compounds from patent US20220274947A1, “NOVEL HETEROARYL-TRIAZOLE COMPOUNDS AS PESTICIDES” (Bayer Aktiengesellschaft, priority 2019, published 2022) can be followed below.

Assay type in all cases: in vivo
One experiment concerns Spodoptera frugiperda. As to the kind of experiment: Spodoptera frugiperda spray test. The conditions noted are these: in Zea mays, 168 h, read-out: activity (mortality). The method, boiled down: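 Percent kill of fall armyworm caterpillars was assessed 7 days after infesting dried, treated maize leaf sections. Treatment was a spray of compound in acetone/dimethylformamide, diluted with water containing emulsifier at 1000 ppm.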

In experiment [1] the test system is Ctenocephalides felis. As to the kind of experiment: Ctenocephalides felis oral test (CTECFE Oral). The settings on record: 48 h, read-out: activity (mortality). The essentials: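 Percent mortality was recorded 2 days after roughly 20 adult Ctenocephalides felis fed on treated cattle blood. The blood was warmed to 37 °C beneath a parafilm membrane, with the fleas kept at room temperature. Compound was dissolved in DMSO and diluted into the blood to test concentration.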

Experiment [2] deals with Rhipicephalus microplus. In words: Rhipicephalus (Boophilus) microplus in-vitro contact test, larval cattle tick, strain Parkhurst (BOOPMI Cont). The settings on record: application rate 5 μg/cm^2 (=500 g/ha), tick larvae, after 48 hours, read-out: activity (efficacy: 100% means all larvae are dead or moribund). The essentials: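 After 48 h at 27° C. and 85% humidity, percent dead or moribund larvae was scored from negative geotactic behaviour. Larvae (20-50, Parkhurst strain, synthetic pyrethroid-resistant) were exposed in tubes coated with compound from acetone, 900 ppm corresponding to 5 μg/cm^2.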

The subject of experiment [3] is Ctenocephalides felis. In words: Ctenocephalides felis in-vitro contact test, adult cat flea (CTECFE Cont). The conditions noted are these: application rate 5 μg/cm^2 (=500 g/ha), adult cat fleas, after 48 hours, read-out: activity (efficacy: 100% means all fleas are dead or moribund). The method, boiled down: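 Efficacy, as percent of fleas dead or moribund, was scored 48 h after adults (5-10 per tube) were placed in glass tubes whose walls carried dried compound at 5 μg/cm^2 (900 ppm solution). Moribund meant failing to climb away from a 45-50° C. hot plate within 5 min.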

The test system of the next experiment is Rhipicephalus sanguineus. As to the kind of experiment: Rhipicephalus sanguineus in-vitro contact test, adult brown dog ticks (RHIPSA Cont). The settings on record: 48 h, after 48 hours, read-out: activity (efficacy: 100% means all ticks are dead or moribund); for pest or weed control at 1 µg/cm2, 100 g/ha: application rate 1 μg/cm^2 (=100 g/ha); for pest or weed control at 5 µg/cm2, 500 g/ha: application rate 5 μg/cm^2 (=500 g/ha). The essentials:
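Compound in acetone (9 mg/mL stock, diluted to test concentration) is coated onto inner walls of glass tubes by rotation for 2 h at 30 rpm. Efficacy is read after 48 h: ticks are tapped down and held on a 45-50° C plate for at most 5 min, and immotile or uncoordinated ones that fail to climb away count as dead or moribund.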

The next experiment relates to Diabrotica balteata. In words: Diabrotica balteata spray test. The settings on record: 168 h, wheat seeds, larvae, after 7 days, read-out: activity (efficacy: 100% means all seedlings have grown up like in the untreated, uninfected control); for pest or weed control at 32 µg/disc, 100 g/ha: application rate 100 g/ha (=32 μg/well). The essentials: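 Efficacy (%) was scored 7 days after spraying, with 100% meaning growth like the untreated, uninfected control and 0% meaning no seedling grew. Spray solutions of compound in acetone/DMF with emulsifier-containing water went onto 1-day-germinated wheat seeds, and each unit was then infested with 10-20 banded cucumber beetle larvae.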

Experiment [4] concerns Myzus persicae. In words: Myzus persicae oral test. The settings on record: 120 h, read-out: activity (mortality). The essentials: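 Percent mortality was recorded at day 5, where 0% means no aphids killed. Compound prepared from an acetone concentrate diluted in water and combined with IPL41 medium containing sugar was offered to mixed-stage green peach aphids, which sucked it through a parafilm seal.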

For experiment [5], the system named is Rhipicephalus microplus. In words: Rhipicephalus (Boophilus) microplus injection test (BOOPMI Inj). The conditions noted are these: 168 h, injection into adult engorged female ticks, egg deposition after 7 days, read-out: activity (efficacy: 100% means all eggs are infertile); for pest or weed control at 0.004 mg: application rate 4 μg/tick. The method, boiled down: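 Compound in DMSO, 1 μL, injected abdominally into five adult engorged females, which were then held in a climate chamber. Read-out is egg fertility, scored from deposition at 7 days, with unclear eggs followed to hatching (~42 days); 0% means all eggs fertile, 100% all infertile.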

For the next experiment, the system named is Nezara viridula. In words: Nezara viridula spray test. The conditions noted are these: in Hordeum vulgare, 96 h, barley plants, larvae, after 4 days; for mortality at 100 g/ha: application rate 100 g/ha. The method, boiled down: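 Mortality was read at day 4 (0% = no kill, 100% = total kill) after spraying larva-infested barley plants. Test solutions were made from an acetone/DMF concentrate diluted with water holding 1000 ppm alkylarylpolyglycol ether emulsifier.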

The subject of experiment [6] is Myzus persicae. As to the kind of experiment: Myzus persicae spray test. The settings on record: in Brassica rapa, foliar, 120 h; for mortality at 100 g/ha: read-out: activity (mortality), application rate 100 g/ha, spray, Chinese cabbage leaf disks, after 5 days. The protocol: Myzus persicae—Spray Test Solvent: 78.0 parts by weight acetone • 1.5 parts by weight dimethylformamide Emulsifier: alkylarylpolyglycol ether To produce a suitable preparation of active compound, 1 part by weight of active compound is mixed with the stated amount of solvents and is diluted with water, containing an emulsifier concentration of 1000 ppm, to the desired concentration. Further test concentrations are prepared by dilution with emulsifier containing water.
Chinese cabbage (Brassica pekinensis) leaf disks infected with all instars of the green peach aphid (Myzus persicae), are sprayed with a preparation of the active ingredient of the desired concentration.
After 5 days mortality in % is determined. 100% means all aphids have been killed and 0% means none of the aphids have been killed.

On to `Cc1nc([C@H](C)NC(=O)c2cc(C(F)(F)F)cc(C(F)(F)F)c2)n(-c2ccc(C(=O)N(C)CC3CC3)cn2)n1` [II-91], for which the mortality at 100 g/ha with Spodoptera frugiperda, with Nezara viridula and with Myzus persicae [6] was 100% each time. Also, in the experiment on Ctenocephalides felis [1], the mortality at 100 ppm was determined as 100%. The pest or weed control at 5 µg/cm2 with Rhipicephalus microplus [2] and with Ctenocephalides felis [3] was 100% throughout. Also, the pest or weed control at 1 µg/cm2, 100 g/ha in the experiment on Rhipicephalus sanguineus is 100%. The pest or weed control at 5 µg/cm2, 500 g/ha in the experiment with Rhipicephalus sanguineus came to 100%. In addition, the pest or weed control at 32 µg/disc, 100 g/ha in the experiment with Diabrotica balteata was determined as 100%. Moreover, the mortality at 0.8 ppm in the experiment with Myzus persicae [4] came out at 100%. Besides, the mortality at 4 ppm in the experiment with Myzus persicae [4] was 100%. In addition, the pest or weed control at 0.004 mg in the experiment on Rhipicephalus microplus [5] came to 100%.
`CC(C)CN(C)C(=O)c1ccc(-n2ncnc2[C@H](C)NC(=O)c2cc(Cl)cc(C(F)(F)F)c2)nc1` [II-71]: the mortality at 500 g/ha with Spodoptera frugiperda is 100%; with Nezara viridula (application rate 500 g/ha) it was 100%; with Myzus persicae [6] (read-out: activity (mortality), application rate 500 g/ha, spray, Chinese cabbage leaf disks, after 5 days) it was 90%. Also, the pest or weed control at 5 µg/cm2 in the experiment on Rhipicephalus microplus [2] and in the experiment with Ctenocephalides felis [3] was 100% in each case. Besides, the pest or weed control at 5 µg/cm2, 500 g/ha in the experiment on Rhipicephalus sanguineus came to 100%. Also, the pest or weed control at 32 µg/disc, 100 g/ha with Diabrotica balteata turned out to be 100%. In addition, the pest or weed control at 160 µg/disc, 500 g/ha in the experiment on Diabrotica balteata (application rate 500 g/ha (=160 μg/well)) was 100%. Besides, in the experiment on Myzus persicae [4], the mortality at 4 ppm was 90%. Further, in the experiment on Rhipicephalus microplus [5], the pest or weed control at 0.004 mg was found to be 100%. Besides, the pest or weed control at 0.02 mg in the experiment on Rhipicephalus microplus [5] (application rate 20 μg/tick) was 100%. Also, in the experiment on Myzus persicae [6], the mortality at 100 g/ha is 90%.
Consider `Cc1nc([C@H](C)NC(=O)c2cc(C(F)(F)F)cc(C(F)(F)F)c2)n(-c2ccc(C(=O)N(C)CC(C)C)cn2)n1` [II-94], for which the mortality at 100 ppm in the experiment with Ctenocephalides felis [1] was determined as 90%. The pest or weed control at 5 µg/cm2 in the experiment with Rhipicephalus microplus [2] and in the experiment on Ctenocephalides felis [3] was 100% throughout. The pest or weed control at 1 µg/cm2, 100 g/ha in the experiment with Rhipicephalus sanguineus came out at 100%. Moreover, the pest or weed control at 5 µg/cm2, 500 g/ha in the experiment on Rhipicephalus sanguineus was determined as 100%. Besides, in the experiment on Diabrotica balteata, the pest or weed control at 32 µg/disc, 100 g/ha came to 100%. For the same compound, the mortality at 4 ppm in the experiment with Myzus persicae [4] came to 100%. Further, the pest or weed control at 0.004 mg in the experiment on Rhipicephalus microplus [5] was 100%. For the same compound, the mortality at 100 g/ha amounted to 100% in the experiment on Nezara viridula and 90% with Myzus persicae [6].
Turning to `Cc1nc([C@H](C)NC(=O)c2cc(C(F)(F)F)cc(C(F)(F)F)c2)n(-c2ccc(C(=O)N(C)CC(F)(F)F)cn2)n1` [II-93], the mortality at 100 g/ha in the experiment with Spodoptera frugiperda amounted to 100%; in the experiment on Nezara viridula, 100%; in the experiment with Myzus persicae [6], 90%. In addition, in the experiment on Ctenocephalides felis [1], the mortality at 100 ppm worked out at 90%. Also, the values for the pest or weed control at 5 µg/cm2 in the experiment on Rhipicephalus microplus [2] and in the experiment on Ctenocephalides felis [3] were 100% and 90%, respectively. In the experiment with Rhipicephalus sanguineus, the pest or weed control at 1 µg/cm2, 100 g/ha amounted to 100%. In addition, in the experiment on Rhipicephalus sanguineus, the pest or weed control at 5 µg/cm2, 500 g/ha stood at 100%. Moreover, in the experiment with Diabrotica balteata, the pest or weed control at 32 µg/disc, 100 g/ha came to 100%. The mortality at 4 ppm in the experiment on Myzus persicae [4] turned out to be 100%. For the same compound, in the experiment on Rhipicephalus microplus [5], the pest or weed control at 0.004 mg turned out to be 100%.
In the case of `Cc1nc([C@H](C)NC(=O)c2cc(C(F)F)cc(C(F)F)c2)n(-c2ccc(C#N)cn2)n1` [II-114], the mortality at 100 g/ha in the experiment with Spodoptera frugiperda amounted to 83%; in the experiment with Nezara viridula, 100%; with Myzus persicae [6], 90%. The pest or weed control at 5 µg/cm2 with Rhipicephalus microplus [2] and in the experiment with Ctenocephalides felis [3] was 100% in each case. Also, in the experiment on Rhipicephalus sanguineus, the pest or weed control at 1 µg/cm2, 100 g/ha was found to be 100%. Besides, the pest or weed control at 5 µg/cm2, 500 g/ha with Rhipicephalus sanguineus was determined as 100%. Moreover, in the experiment with Diabrotica balteata, the pest or weed control at 32 µg/disc, 100 g/ha came out at 100%. In addition, the mortality at 0.8 ppm with Myzus persicae [4] is 100%. Besides, the mortality at 4 ppm in the experiment with Myzus persicae [4] was 100%.
In the case of `Cc1nc([C@H](C)NC(=O)c2cc(OC(F)F)cc(C(F)F)c2)n(-c2ccc(C#N)cn2)n1` [II-113], the figures for the mortality at 100 g/ha in the experiment on Spodoptera frugiperda, with Nezara viridula and in the experiment on Myzus persicae [6] were 100%, 100% and 90%, respectively. For the same compound, the mortality at 100 ppm in the experiment with Ctenocephalides felis [1] is 100%. The pest or weed control at 5 µg/cm2 in the experiment on Rhipicephalus microplus [2] and in the experiment with Ctenocephalides felis [3] was 100% each time. The pest or weed control at 1 µg/cm2, 100 g/ha in the experiment with Rhipicephalus sanguineus was found to be 80%. The pest or weed control at 5 µg/cm2, 500 g/ha with Rhipicephalus sanguineus was 100%. The pest or weed control at 32 µg/disc, 100 g/ha with Diabrotica balteata is 100%. The mortality at 0.8 ppm in the experiment with Myzus persicae [4] came to 100%. In addition, the mortality at 4 ppm in the experiment with Myzus persicae [4] worked out at 100%. Besides, the pest or weed control at 0.004 mg in the experiment with Rhipicephalus microplus [5] worked out at 100%.
